Consider one compound from paper PMC7143545, “Specific NDM-1 Inhibitor of Isoliquiritin Enhances the Activity of Meropenem against NDM-1-positive Enterobacteriaceae in vitro” (International Journal of Environmental Research and Public …, 2020).

One may read the pIC50 as the IC50 on a negative log10 scale, so that one unit is a factor of ten. A low value points to a high IC50.

The target of the experiment is T1, New Delhi metallo-β-lactamase-1 (NDM-1) (Escherichia coli, UniProt E5KIY2).
T1 construct: gene blaNDM-1; His-tagged protein (pET28a), ndm-1 from E. coli ZC-YN3
T1 sequence (E5KIY2 29-270 limits assumed): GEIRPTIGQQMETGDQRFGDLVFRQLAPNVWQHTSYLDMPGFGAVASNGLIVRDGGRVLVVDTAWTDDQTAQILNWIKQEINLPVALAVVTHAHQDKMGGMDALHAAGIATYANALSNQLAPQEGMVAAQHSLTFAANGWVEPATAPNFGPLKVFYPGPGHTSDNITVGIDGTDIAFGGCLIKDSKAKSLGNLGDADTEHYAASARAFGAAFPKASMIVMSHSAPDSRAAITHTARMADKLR
The experiment is described as follows: nitrocefin hydrolysis inhibition assay with purified enzyme. Type of experiment: biochemical.

pIC50: −log10 of the molar value.

Regarding `O=C(/C=C/c1ccc(O[C@@H]2O[C@H](CO)[C@@H](O)[C@H](O)[C@H]2O)cc1)c1ccc(O)cc1O` [isoliquiritin], the pIC50 is 4.04.
